Test results taken from patent US20230091297A1, “INHIBITORS OF HSP70 PROTEINS” (ARIZONA BOARD OF REGENTS ON BEHALF OF THE UNIVERSITY OF …, priority 2020, published 2023).

Tests used:
HSPA2 = molecular target: T1, HSPA2 (Homo sapiens, UniProt P54652); assay: FP peptide binding assay, HSPA2 SBD; conditions: 1 μM HSP70 SBD, 10 nM fluorescent peptide, read-out: A2 IC50
T1 construct: His6 (N, cleaved yes); made in house; host or cells: E. coli (Codon plus)

HSPA6 = molecular target: T2, HSPA6 (Homo sapiens, UniProt P17066); assay: FP peptide binding assay, HSPA6 SBD; conditions: 1 μM HSP70 SBD, 10 nM fluorescent peptide, read-out: A6 IC50
T2 construct: His6 (N, cleaved yes); made in house; host or cells: E. coli (Codon plus)
T2 sequence (P17066 396-511 limits assumed): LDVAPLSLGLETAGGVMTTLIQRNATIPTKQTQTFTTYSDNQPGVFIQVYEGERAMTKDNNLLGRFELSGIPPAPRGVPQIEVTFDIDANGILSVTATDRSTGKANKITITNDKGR

HSPA9 = molecular target: T3, HSPA9 (Homo sapiens, UniProt P38646); assay: FP peptide binding assay, HSPA9 SBD; conditions: 1 μM HSP70 SBD, 10 nM fluorescent peptide, read-out: A9 IC50
T3 construct: His6 (N, cleaved yes); made in house; host or cells: E. coli (Codon plus)
T3 sequence (P38646 442-679 limits assumed): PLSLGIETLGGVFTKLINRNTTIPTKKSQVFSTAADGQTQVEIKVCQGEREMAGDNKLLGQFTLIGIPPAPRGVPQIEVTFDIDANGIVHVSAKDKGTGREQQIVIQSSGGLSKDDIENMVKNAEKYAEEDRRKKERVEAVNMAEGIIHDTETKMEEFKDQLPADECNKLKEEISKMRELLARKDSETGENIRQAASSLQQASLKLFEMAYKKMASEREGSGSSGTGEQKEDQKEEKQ

HSA = molecular target: T4, HSA (Homo sapiens, UniProt P02768); assay: Serum binding assay (dansylamide and BD140 probes); type: in vitro ADME; conditions: 50 μM compound, 20 μM HSA
T4 construct: Each sample contained 20 μM HSA in PBS at pH 7.4; from tissue; host or cells: human serum
T4 sequence (P02768 25-609): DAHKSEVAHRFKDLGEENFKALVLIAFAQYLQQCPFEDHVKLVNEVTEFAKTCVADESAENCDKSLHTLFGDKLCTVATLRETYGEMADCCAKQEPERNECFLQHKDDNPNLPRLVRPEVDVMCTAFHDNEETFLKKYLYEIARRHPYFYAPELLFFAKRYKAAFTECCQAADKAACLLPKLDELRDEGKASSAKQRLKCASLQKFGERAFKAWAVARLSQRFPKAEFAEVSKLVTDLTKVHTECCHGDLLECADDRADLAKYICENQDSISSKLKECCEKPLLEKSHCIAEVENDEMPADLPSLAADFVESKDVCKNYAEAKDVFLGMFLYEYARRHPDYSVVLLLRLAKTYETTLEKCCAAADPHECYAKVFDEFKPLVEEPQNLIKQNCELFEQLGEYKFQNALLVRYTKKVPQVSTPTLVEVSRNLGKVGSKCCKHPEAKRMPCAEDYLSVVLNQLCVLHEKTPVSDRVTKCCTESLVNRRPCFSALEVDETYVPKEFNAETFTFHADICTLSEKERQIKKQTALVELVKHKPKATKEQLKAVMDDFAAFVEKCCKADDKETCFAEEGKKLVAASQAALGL

60 cancer cell lines = assay: NCI-60 human tumor cell line screen; type: cell-based; conditions: fixed concentration of 10 μM (FIG. 8)
cancer cell lines = assay: ZIP synergy with CB5083, growth inhibition; type: cell-based; conditions: combination of CB5083 and 8 (FIG. 9A)
U251 glioblastoma cells = assay: Cellular synergy, U251 growth rate (incucyte confluence); type: cell-based; conditions: 10 μM of 8 (FIG. 12)
HSPA1A [1] = molecular target: T5, HSPA1A (Homo sapiens, UniProt P0DMV8); assay: FP peptide binding assay, HSPA1A SBD; set-up: His6 (N, cleaved yes); made in house; host or cells: E. coli (Codon plus); conditions: 1 μM HSP70 SBD, 10 nM fluorescent peptide, read-out: A1A IC50
Target sequence in this assay (P0DMV8 394-509 limits assumed): as the sequence (P17066 396-511 limits assumed) above, with T19A, Q22K, A25S, T34I, F46L, S94N, R100K counted along it

HSPA8 [2] = molecular target: T6, HSPA8 (Homo sapiens, UniProt P11142); assay: FP peptide binding assay, HSPA8 SBD; set-up: His6 (N, cleaved yes); made in house; host or cells: E. coli (Codon plus); conditions: 1 μM HSP70 SBD, 10 nM fluorescent peptide, read-out: A8 IC50
Target sequence in this assay (P11142 394-509 limits assumed): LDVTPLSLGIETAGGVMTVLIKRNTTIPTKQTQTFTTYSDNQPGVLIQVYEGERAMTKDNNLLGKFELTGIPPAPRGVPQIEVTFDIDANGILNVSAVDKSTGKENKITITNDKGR

HSPA5 = HSPA5 (Homo sapiens, UniProt P11021); assay: FP peptide binding assay, HSPA5 (HSPA5-NRLLLTG interaction); set-up: His6 (N, cleaved yes); made in house; host or cells: E. coli (Codon plus); conditions: FP, 1 μM HSP70 SBD, 10 nM fluorescent peptide; read-out: A5 IC50
HSPA5, sequence (P11021 419-632): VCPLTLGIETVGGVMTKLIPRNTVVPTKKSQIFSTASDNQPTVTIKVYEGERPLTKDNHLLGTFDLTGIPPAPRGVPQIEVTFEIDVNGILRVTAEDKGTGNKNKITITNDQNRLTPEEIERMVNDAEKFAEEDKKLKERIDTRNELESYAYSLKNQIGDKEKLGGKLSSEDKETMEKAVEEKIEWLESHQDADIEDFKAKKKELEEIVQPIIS

[3] = Solubility (comparison in words); type: physicochemical
[4] = molecular target: T7, HspA5 substrate binding domain (Homo sapiens, UniProt P11021); assay: 15N-HSQC NMR of HspA5 substrate binding domain; conditions: FIG. 11
T7 construct: HspA5SBD); His6-Smt3 (N, cleaved yes); made in house; host or cells: E. coli BL21-Codon+
T7 sequence (P11021 418-635): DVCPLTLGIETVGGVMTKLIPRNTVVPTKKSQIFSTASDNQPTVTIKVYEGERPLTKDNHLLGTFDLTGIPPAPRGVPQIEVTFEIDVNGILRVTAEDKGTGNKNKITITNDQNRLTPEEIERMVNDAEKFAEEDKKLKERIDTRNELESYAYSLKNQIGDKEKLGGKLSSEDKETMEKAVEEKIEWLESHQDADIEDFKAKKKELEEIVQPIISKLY

[5] = test system: canonical human HSP70 isoforms; assay: FP binding of fluorescent peptides to HSP70 substrate binding domains; conditions: FIG. 4A
HSPA1A [6] = molecular target: T5, HSPA1A; conditions: read-out: NRLLLTG affinity for HSPA1A; reported in the literature; cited from earlier work
Target sequence in this assay (P0DMV8 whole entry): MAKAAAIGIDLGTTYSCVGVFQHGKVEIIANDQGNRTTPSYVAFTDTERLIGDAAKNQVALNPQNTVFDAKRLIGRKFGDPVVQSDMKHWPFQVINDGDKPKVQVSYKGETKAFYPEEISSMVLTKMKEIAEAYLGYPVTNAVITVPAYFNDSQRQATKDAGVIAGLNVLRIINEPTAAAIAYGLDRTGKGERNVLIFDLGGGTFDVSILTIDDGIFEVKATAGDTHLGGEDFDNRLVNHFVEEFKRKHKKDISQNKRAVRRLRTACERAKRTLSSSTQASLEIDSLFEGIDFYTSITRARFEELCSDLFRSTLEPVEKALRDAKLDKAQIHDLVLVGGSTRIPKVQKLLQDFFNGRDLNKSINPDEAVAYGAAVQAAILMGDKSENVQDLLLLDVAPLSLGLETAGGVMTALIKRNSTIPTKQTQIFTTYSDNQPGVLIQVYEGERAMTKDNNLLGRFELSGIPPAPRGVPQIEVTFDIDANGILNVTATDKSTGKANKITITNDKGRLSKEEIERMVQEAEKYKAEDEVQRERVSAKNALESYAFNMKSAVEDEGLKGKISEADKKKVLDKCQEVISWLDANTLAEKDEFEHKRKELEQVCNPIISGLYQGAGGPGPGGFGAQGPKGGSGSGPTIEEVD

HSPA8 [7] = molecular target: T6, HSPA8; conditions: read-out: NRLLLTG affinity for HSPA8; reported in the literature; cited from earlier work
Target sequence in this assay (P11142 whole entry): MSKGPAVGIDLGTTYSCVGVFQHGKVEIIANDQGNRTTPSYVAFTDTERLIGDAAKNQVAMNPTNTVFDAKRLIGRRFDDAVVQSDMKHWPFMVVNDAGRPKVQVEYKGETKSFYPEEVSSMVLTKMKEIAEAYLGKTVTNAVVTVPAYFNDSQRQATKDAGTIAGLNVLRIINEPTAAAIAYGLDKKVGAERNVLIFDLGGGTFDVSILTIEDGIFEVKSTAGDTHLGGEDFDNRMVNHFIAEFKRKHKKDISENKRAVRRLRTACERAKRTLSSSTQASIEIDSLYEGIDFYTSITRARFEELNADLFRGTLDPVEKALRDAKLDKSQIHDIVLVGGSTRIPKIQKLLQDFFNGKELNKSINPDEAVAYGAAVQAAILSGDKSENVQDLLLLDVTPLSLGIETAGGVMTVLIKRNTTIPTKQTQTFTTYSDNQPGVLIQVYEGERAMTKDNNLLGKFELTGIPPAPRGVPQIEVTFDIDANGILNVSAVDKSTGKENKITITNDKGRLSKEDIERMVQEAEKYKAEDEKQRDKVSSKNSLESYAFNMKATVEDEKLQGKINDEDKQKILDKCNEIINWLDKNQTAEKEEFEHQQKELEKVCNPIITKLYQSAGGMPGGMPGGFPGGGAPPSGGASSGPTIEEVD

T1 sequence (P54652 397-512 limits assumed): as the sequence (P11142 394-509 limits assumed) above, with V19P, P43S, G44S, I47V, E67D, S96T, V98A counted along it

CC(C)[C@H](NC(=O)c1cc2ccccc2[nH]1)C(=O)Nc1nccs1 [Compound 8] gave an IC50 (HSPA2) of 13.9 µM, an IC50 (HSPA6) greater than 50 µM and an IC50 (HSPA9) of 4.3 µM. The “Serum Binding” value (HSA) was less than 10%, the “growth inhibition in NCI-60 panel” value (60 cancer cell lines) was “did not indicate significant decrease in growth rates” and the “ZIP synergy with p97 inhibitor CB5083” value (cancer cell lines) was “growth inhibition was observed when both compounds are present a concentration where neither showed activity independently”. The “growth inhibition with ER stress inducers MG132, thapsigargin, and CB5082” value (U251 glioblastoma cells) was “inhibits growth of these cells in a synergistic manner”, the IC50 (HSPA1A [1]) was greater than 50 µM and the IC50 (HSPA8 [2]) was 43.5 µM.

For CC(C)[C@H](NC(=O)c1cccs1)C(=O)O [Compound 17, (thiophene-2-carbonyl)-L-valine], the IC50 (HSPA5) was greater than 50 µM.

With CC(=O)c1ccc2[nH]c(C(=O)N[C@H](C(=O)Nc3nccs3)C(C)C)cc2c1 [Compound 24, (S)-5-acetyl-N-(3-methyl-1-oxo-1-(thiazol-2-ylamino)butan-2-yl)-1H-indole-2-carboxamide] the “solubility (comparison)” value [3] was “much more soluble than compound 8”, the “binding to HSPA5 SBD by HSQC” value [4] was “binds to HSPA5 in a manner that stabilizes its structure” and the IC50 (HSPA5) was 0.43 ± 0.09 µM.

With “FITC-NR: Fluorescent peptide (FITC-NRLLLTG) used as FP probe” the “binding of fluorescent peptide to HSP70 isoforms” value [5] was “only bound tightly to HSPA5 and HSPA9”.

In the case of NRLLLTG, the Kd (HSPA1A [6]) is given as 10 µM and the Kd (HSPA8 [7]) is given as 10 µM.

For “P1: fluorescent peptide FAM-ALLLSAPRR that binds human HSP70 isoforms [Compound P1]”, the “binding of fluorescent peptide to HSP70 isoforms” value [5] was “bound with high affinity to all isoforms except HSPA1L”.
